Assay results: patent US11643439B2, “Multi-target compound with anticoagulation and antiplatelet activity, preparation method therefor, and use thereof” (SHAANXI MICOT TECHNOLOGY LIMITED COMPANY, priority 2015, dated 2023)

Key:
[1] = tested on: blood coagulation function; test: TT in rabbits, single intravenous administration; assay type: in vivo, rabbit
Protocol: 1. Grouping and administration: 48 Rabbits were randomly divided into 6 groups, 8 rabbits per group. 1) Sham operation group (NS): Intravenous injection of the same volume of physiological saline; 2) positive control bivalirudin group (6 mg/kg); 3) positive control enoxaparin group (200 U/kg); 4) Low dose group of polypeptide 2 (3.0 mg/kg); 5) Medium dose group of polypeptide 2 (6.0 mg/kg); 6) High dose group of polypeptide 2 (12.0 mg/kg). Polypeptide 2 was administered by single intravenous administration. According to the body weight in kilograms of the rabbits, the sample was dissolved in 2 mL of physiological saline for single bolus injection. The sham operation group was administered with the same volume of physiological saline.
3.2 Determination of blood coagulation function: Blood samples were taken and the blood function (PT, TT, APTT) was determined at 0 min before administration, at points of 5 min and 15 min after administration, using a platelet-aggregation coagulation factor analyzer. Blood samples were centrifuged at 3510 rpm for 8 min to obtain platelet poor plasma (PPP). Reagent reconstruction and preservation were performed according to the operation requirements of the kit. Immediately after each blood sample was placed into a test cup and then added with PT. TT and APTT reagents, the test was started. After the test was completed, results were recorded.

[2] = tested on: experimental cerebral infarction; test: Progressive ischemic stroke (MCAO suture method) in rats; assay type: in vivo, rat; details: for Cerebral index / Cerebral infarct volume ratio: 24 hours after the surgery
Protocol: 3.2 Grouping and administration: At 15 min after the mold was established, administration was started by jugular vein intubation, with the first dose and the maintenance dose for 60 min, […], while the model group was administered with physiological saline.
3.3 Experimental operation: Suture method (common carotid artery insertion method): the skin on the neck was cut open from a median incision thereon, and the common, external and internal carotid arteries were isolated therefrom. The common carotid artery was ligated at the heart-proximal end and the external carotid artery was ligated at the distal end. The distal end of the internal carotid artery was temporarily occluded with a small vascular clamp, and at the bifurcation of the common, external and internal carotid arteries, a thread for ligature was reserved. A small opening was cut with an eye scissor on the common carotid artery which was close to the internal carotid artery, to allow a certain degree of bending of the MCAO thread, which inserted into the internal carotid artery along the common carotid artery. During the thread insertion, the thread bended towards the direction of the operator, which was slowly pushed forward about 18 mm (from the bifurcation of the arteries), and terminated when a resistance was felt. The reserved thread was ligated at the bifurcation to fix the thread. At 15 min after the mold was established, the first dose was administered followed by maintenance dose for 60 min, and after the administration was finished, the wound in the neck was sutured in a conventional manner.
4.1 Neurobehavioral scores: Rats in both the groups were evaluated in terms of their neurobehavioral scores at 4, 8, and 24 hours after the surgery, with a Longa five-point quartering method as the standard: 0 point: no neurological defect; 1 point: adduction and failure to full extension of forelimbs on contralateral side when tail lifting; 2 points: rotation to the contralateral side; 3 points: toppling and falling to the contralateral side when walking; 4 points: failure to walk or coma. Cases with 1 to 4 points were classified as valid models.
4.2 observing infarct lesions and infarct volume by TTC staining: At 24 hours after the surgery, the animals were sacrificed and the brain was taken for TTC staining. The infarct volume was calculated by using a mapping software.
4.3 Cerebral index, cerebral water content: The rats in each group were rapidly decapitated 24 hours after the surgery and model establishment, and the whole brain was rapidly peeled off, which was then weighed for wet weight and used to calculate the brain index: Brain index=Brain wet weight/Body weight*100%

[3] = tested on: whole blood coagulation; test: ACT in rabbits, intravenous maintenance administration; assay type: in vivo, rabbit
Protocol: 2. Grouping and administration: 10 rabbits were randomly divided into 3 groups, […]. 1) Sham operation group (NS): Intravenous injection of the same volume of physiological saline, with the same operation method as above; 2) polypeptide 2 administration group: 8.0 mg/kg+20.0 mg/kg/h; 3) positive control enoxaparin group: 50 U/kg+150 U/kg/h. According to the body weight in kilograms of the rabbits, the first dose of the drug to be tested was dissolved in 2 mL of physiological saline for single bolus injection. The maintaining dose was dissolved in 9 ml of physiological saline, and placed in a double-channel micro-injection pump, which was dripped off within 90 minutes at a dripping speed of […]. The sham operation group was administered with the same volume of physiological saline. […]

[4] = single iv 6.0 mg/kg, Before administration
[5] = iv 0.5 + 1.25 (mg/kg + mg/kg/h)

Bivalirudin: Bivalirudin for Injection, Xi'an Xintong Pharmaceutical Research Co., Ltd.; positive control thrombin inhibitor
TT ([1]; single iv 6.0 mg/kg, Administration for 5 min): >180 s | TT ([1]; single iv 6.0 mg/kg, Administration for 15 min): >180 s | TT [1, 4]: 22.4 ± 5.2 S

D-Phe Pro Arg Pro Gly Gly Gly Gly Asn Gly Asp Phe Glu Glu Ile Pro Glu Glu Tyr Leu Glu Ala Ala Ala Lys Cys Har Gly Asp Trp Pro Cys [Polypeptide 2]
neurological behaviors (neurobehavioral score, Longa) ([2]; iv 0.5 + 1.25 (mg/kg + mg/kg/h), 4 h after surgery): 1.00 ± 0.58 | neurological behaviors (neurobehavioral score, Longa) ([2]; iv 0.5 + 1.25 (mg/kg + mg/kg/h), 8 h after surgery): 1.00 ± 0.58 | neurological behaviors (neurobehavioral score, Longa) ([2]; iv 0.5 + 1.25 (mg/kg + mg/kg/h), 24 h after surgery): 1.00 ± 0.58 | Cerebral index [2, 5]: 0.6648 ± 0.0374 % | Cerebral infarct volume ratio [2, 5]: 11.12 ± 6.56 % | Cerebral infarct volume ratio ([2]; iv 0.5 + 1.25 (mg/kg + mg/kg/h), listed as polypeptide 2): 11.12±6.56% | neurological behaviors (neurobehavioral score, Longa) ([2]; iv 1.0 + 2.5 (mg/kg + mg/kg/h), 4 h after surgery): 0.86 ± 1.07 | neurological behaviors (neurobehavioral score, Longa) ([2]; iv 1.0 + 2.5 (mg/kg + mg/kg/h), 8 h after surgery): 0.86 ± 0.90 | neurological behaviors (neurobehavioral score, Longa) ([2]; iv 1.0 + 2.5 (mg/kg + mg/kg/h), 24 h after surgery): 1.14 ± 0.69 | Cerebral index ([2]; iv 1.0 + 2.5 (mg/kg + mg/kg/h)): 0.6830 ± 0.0322% | Cerebral infarct volume ratio ([2]; iv 1.0 + 2.5 (mg/kg + mg/kg/h)): 8.01 ± 6.66 % | Cerebral infarct volume ratio ([2]; iv 1.0 + 2.5 (mg/kg + mg/kg/h), listed as polypeptide 2): 8.01±6.66% | ACT ([3]; iv 8.0 + 20.0 (mg/kg+mg/kg/h), Administration 30 min): 330.0 ± 63.6 S | ACT ([3]; iv 8.0 + 20.0 (mg/kg+mg/kg/h), Administration 60 min): 277.5 ± 31.8 S | ACT ([3]; iv 8.0 + 20.0 (mg/kg+mg/kg/h), Administration 90 min): 300.0 ± 63.6 S | ACT ([3]; iv 8.0 + 20.0 (mg/kg+mg/kg/h), Before administration): 217.5 ± 95.5 S | ACT ([3]; iv 8.0 + 20.0 (mg/kg+mg/kg/h), Termination 120 min): 172.5 ± 31.8 S | ACT ([3]; iv 8.0 + 20.0 (mg/kg+mg/kg/h), Termination 180 min): 112.5 ± 74.2 S | TT ([1]; single iv 3.0 mg/kg, Before administration): 21.0 ± 2.6 S | TT [1, 4]: 22.3 ± 1.9 S | TT ([1]; single iv 12.0 mg/kg, Before administration): 21.8 ± 6.4 S

Enoxaparin
neurological behaviors (neurobehavioral score, Longa) ([2]; iv 90 U/kg + 120 U/kg/h, 4 h after surgery): 0.63 ± 0.74 | neurological behaviors (neurobehavioral score, Longa) ([2]; iv 90 U/kg + 120 U/kg/h, 8 h after surgery): 0.88 ± 0.64 | neurological behaviors (neurobehavioral score, Longa) ([2]; iv 90 U/kg + 120 U/kg/h, 24 h after surgery): 1.38 ± 0.74 | Cerebral index ([2]; iv 90 U/kg + 120 U/kg/h): 0.6819 ± 0.0356% | Cerebral infarct volume ratio ([2]; iv 90 U/kg + 120 U/kg/h): 10.22 ± 5.38 % | ACT ([3]; iv 50 U + 150 U, Administration 30 min): 225.0 S | ACT ([3]; iv 50 U + 150 U, Administration 60 min): 375.0 S | ACT ([3]; iv 50 U + 150 U, Administration 90 min): 270.0 S | ACT ([3]; iv 50 U + 150 U, Before administration): 180.0 S | ACT ([3]; iv 50 U + 150 U, Termination 60 min): 210 S | ACT ([3]; iv 50 U + 150 U, Termination 120 min): 195.0 S | ACT ([3]; iv 50 U + 150 U, Termination 180 min): 225.0 S | TT ([1]; single iv 200 (U/kg), Administration for 5 min): >180 s | TT ([1]; single iv 200 (U/kg), Administration for 15 min): >180 s | TT ([1]; single iv 200 (U/kg), Before administration): 20.7 ± 4.2 S
